Measured values: patent US20050153943A1, “Methods of simultaneously treating mucositis and fungal infection” (priority 2002, published 2005)
In brackets after ≈: the same amount, converted by molar mass. Where two headings read alike, the source gives them in different places.

Assays:
[1] = tested on: BALB/c 3T3 (CCL-163) cells; assay: 3T3 phototoxicity assay (Neutral Red uptake, with/without UVA); conditions: 5 J/cm^2 UVA vs dark; for PIF 1 (photoirritancy factor, IC50(-UVA)/IC50(+UVA), earlier software): 1 = no measurable phototoxicity, >5 phototoxic potential; for MPE (mean photo effect): <0.1 nonphototoxin, 0.1 to <0.15 probable, >=0.15 clear phototoxin
[2] = tested on: Cunninghamella Species; assay: IC50 and MIC on microplate agar gels (Example 40); type: cell-based; conditions: Cunninghamella; agar gel, 0.25-4.00 μg/ml, 30° C., 24 hours; NI = no detectable inhibition; read-out: IC50
Method: (§1) Each drug was dissolved in DMSO (1.0 mg/ml) as a stock solution and stored at −20° C. Just prior to use, each stock solution was thawed and diluted in DMSO to produce 6 different 100× concentrations. Potato dextrose agar was dissolved in distilled water (39 g/L) and sterilized at […] (250° F.) for 15 min. The agar solution was mixed with each drug (in a water bath at 60° C.) to make a series of final concentrations, i.e. 0.00, 0.25, 0.50, 1.00, 2.00, 4.00 μg/ml. The mixtures were then transferred to 24-well plates (1 ml/well). After the gel had formed, the fungus in PBS (spore count=1-5×10^4/ml) was inoculated by pipetting 10 μl onto each gel. The plates were incubated at 30° C. for different times, depending on the requirement of each species, e.g. 24 hours for Penicillium, Rhizopus, Tricothecium, Ulocladium, Absidia, Aspergilus, Caindida, Cunninghamella, 3 days for Scedosporium, and 5 days for Fonsecae and Phialophora.
(§2) “*” indicates better than or similar results to Amphotericin B. “NI” indicates no detectable inhibition.

[3] = tested on: Aspergilus Fumigatus; assay: IC50 and MIC on microplate agar gels (Example 40); type: cell-based; conditions: agar gel, 0.25-4.00 μg/ml, 30° C., 24 hours; NI = no detectable inhibition; read-out: IC50
Method: as §1, §2

[4] = tested on: Rhizopus Species; assay: IC50 and MIC on microplate agar gels (Example 40); type: cell-based; conditions: Rhizopus; agar gel, 0.25-4.00 μg/ml, 30° C., 24 hours; NI = no detectable inhibition; read-out: IC50
Method: as §1, §2

[5] = tested on: Penicillium Species; assay: IC50 and MIC on microplate agar gels (Example 40); type: cell-based; conditions: agar gel, 0.25-4.00 μg/ml, 30° C., 24 hours, NI = no detectable inhibition
Method: as §1, §2

[6] = tested on: Candida Albicans; assay: IC50 and MIC on microplate agar gels (Example 40); type: cell-based; conditions: Candida albicans; agar gel, 0.25-4.00 μg/ml, 30° C., 24 hours; NI = no detectable inhibition; read-out: IC50
Method: as §1, §2

[7] = tested on: Ulocladium Species; assay: IC50 and MIC on microplate agar gels (Example 40); type: cell-based; conditions: agar gel, 0.25-4.00 μg/ml, 30° C., 24 hours, NI = no detectable inhibition
Method: as §1, §2

[8] = tested on: Fonsecae Species; assay: IC50 and MIC on microplate agar gels (Example 40); type: cell-based; conditions: 120 h; agar gel, 0.25-4.00 μg/ml, 30° C., 5 days; NI = no detectable inhibition; read-out: IC50
Method: as §1, §2

[9] = tested on: Scedosporium Apiospermum; assay: IC50 and MIC on microplate agar gels (Example 40); type: cell-based; conditions: agar gel, 0.25-4.00 μg/ml, 30° C., 3 days, NI = no detectable inhibition
Method: as §1, §2

[10] = tested on: Tricothecium Species; assay: IC50 and MIC on microplate agar gels (Example 40); type: cell-based; conditions: agar gel, 0.25-4.00 μg/ml, 30° C., 24 hours, NI = no detectable inhibition
Method: as §1, §2

[11] = tested on: Phialophora Verrucosa; assay: IC50 and MIC on microplate agar gels (Example 40); type: cell-based; conditions: Phialophora verrucosa, 120 h; agar gel, 0.25-4.00 μg/ml, 30° C., 5 days; NI = no detectable inhibition; read-out: IC50
Method: as §1, §2

[12] = tested on: Absidia Species; assay: IC50 and MIC on microplate agar gels (Example 40); type: cell-based; conditions: Absidia; agar gel, 0.25-4.00 μg/ml, 30° C., 24 hours; NI = no detectable inhibition; read-out: IC50
Method: as §1, §2

[13] = tested on: Penicillium sp. (laboratory isolate); assay: Fungal growth on SABHI agar containing CMT (Example 38); type: cell-based; conditions: for Growth at 25 μg/ml compared to control at 24 hrs incubation / Growth at 25 μg/ml compared to control at 48 hours: 30° C., growth grade
Method: (§3) The following fungi were inoculated onto potato dextrose agar (PDA) from stock cultures and incubated aerobically at 30° C.: Aspergillus [NT] 1022, Penicillium sp. (laboratory isolate), Candida albicans, ATCC 14053, and Rhizopus sp. […] The conidia were suspended in 0.9% saline and the turbidity was adjusted to match a 0.5 MacFarland standard (equivalent to approximately 1.5×10^8 cells). Candida albicans was suspended in saline and adjusted to 0.5 MacFarland in a similar manner. These suspensions were diluted 1:100 in sterile 0.9% saline. SABHI Agar (Difco) pH 7.0 was prepared in 100 ml amounts and sterilized at 121° C. for 15 min. […] SABHI Agar plates of each CMT and SAHBI agar without CMT using dimethylsulphoxide (DMSO) as a control were inoculated with 10 μl of conidia suspension of Aspergillus fumigatus, Penicillium sp. and Rhizopus sp. and 10 μl suspension of Candida albicans prepared as described above. The plates were then incubated aerobically for 24 hour and for 48 hours at 30° C. The results are set forth in Table 1 (24 hr. incubation) and Table 2 (48 hr. incubation). [table]

[14] = tested on: Aspergillus fumigatus ATCC 1022; assay: as above; type: cell-based
Method: as §3

[15] = tested on: Rhizopus sp.; assay: as above; type: cell-based; conditions: 25 μg/ml, 30° C., growth grade
Method: as §3

[16] = tested on: Candida albicans, ATCC 14053; assay: as above; type: cell-based; conditions: 25 μg/ml, 30° C., growth grade
Method: as §3

[17] = tested on: 11 different species of fungi; assay: Summary of Example 40 over the whole panel; type: cell-based; conditions: 11 tested fungi, up to 4.00 μg/ml
Method: as §1, §2

[18] = tested on: eleven different species of fungi; conditions: cited from earlier work

In the case of “2-CONHCH2-pyrrolidin-1-yl-4-dedimthylaminodoxycycline [COL 807]”, the “PIF 1 (photoirritancy factor, IC50(-UVA)/IC50(+UVA), earlier software)” value [1] is reported as 40.4 and the “MPE (mean photo effect)” value [1] is reported as 0.382.
With CN(C)[C@@H]1C(O)=C(C(N)=O)C(=O)[C@@]2(O)C(O)=C3C(=O)c4c(O)cccc4[C@@](C)(O)[C@H]3C[C@@H]12 [Tetracycline, reference compound] the “PIF 1 (photoirritancy factor, IC50(-UVA)/IC50(+UVA), earlier software)” value [1] was 5.38 and the “MPE (mean photo effect)” value [1] was 0.340.
Molecule C[C@H]1c2cccc(O)c2C(=O)C2=C(O)[C@]3(O)C(=O)C(C(N)=O)=C(O)[C@@H](N(C)C)[C@@H]3[C@@H](O)[C@@H]21 [Doxycycline, 6α-deoxy-5-hydroxytetracycline, reference compound] has an IC50 [2] of over 4 µg/mL, an IC50 [3] of over 4 µg/mL and an IC50 [4] of over 4 µg/mL. For the same molecule, the IC50 ([5]; Penicillium, read-out: IC50) was over 4 µg/mL, the IC50 [6] was over 4 µg/mL and the IC50 ([7]; read-out: IC50) was over 4 µg/mL. It also gave an IC50 [8] of over 4 µg/mL, an IC50 ([9]; Scedosporium apiospermum, 72 h, read-out: IC50) of over 4 µg/mL and an IC50 ([10]; read-out: IC50) of 4 µg/mL (≈ 9 µM). For the same molecule, the MIC ([10]; read-out: MIC) was over 4 µg/mL, the IC50 [11] was over 4 µg/mL and the IC50 [12] was over 4 µg/mL.
For NC(=O)C1=C(O)CC2CC3Cc4ccc(N)c(O)c4C(=O)C3=C(O)C2(O)C1=O (stereo not shown) [COL 308, 9-amino-6-demethyl-6-deoxy-4-dedimethylaminotetracycline], the “Anti-fungal activity (summary in words)” value ([13]; 25 μg/ml agar, Example 38) was “demonstrated activity”, the “Growth at 25 μg/ml compared to control at 24 hrs incubation” value [13] was 0 (complete inhibition of growth.) and the “Growth at 25 μg/ml compared to control at 48 hours” value [13] was 0 (complete inhibition of growth.). For the same molecule, the “Anti-fungal activity (summary in words)” value ([14]; 25 μg/ml agar, Example 38) was “demonstrated activity”, the “Growth at 25 μg/ml compared to control at 24 hrs incubation” value ([14]; 25 μg/ml, 24 hrs, 30° C., growth grade) was 0 (complete inhibition of growth.) and the “Growth at 25 μg/ml compared to control at 48 hours” value ([14]; 25 μg/ml, 30° C., growth grade) was 1 (75% reduction in growth in colonies compared to control.). The “Growth at 25 μg/ml compared to control at 24 hrs incubation” value [15] was 4 (Level of growth in the absence of anti-fungal agent (control).), the “Growth at 25 μg/ml compared to control at 48 hours” value [15] was 4 (Level of growth in the absence of anti-fungal agent (control).) and the “Growth at 25 μg/ml compared to control at 24 hrs incubation” value [16] was 4 (Level of growth in the absence of anti-fungal agent (control).). The “Growth at 25 μg/ml compared to control at 48 hours” value [16] was 4 (Level of growth in the absence of anti-fungal agent (control).).
With CC1c2cccc(O)c2C(=O)C2=C(O)C3(O)C(=O)C(C(N)=O)=C(O)CC3C(O)C21 (stereo not shown) [COL 8, 4-dedimethylaminodoxycycline] the IC50 [5] was 2.0 µg/mL (≈ 4.98 µM), the MIC [5] was over 4 µg/mL and the IC50 [7] was 2.0 µg/mL (≈ 4.98 µM). The MIC [7] was over 4 µg/mL, the IC50 [9] was 2.0 µg/mL (≈ 4.98 µM) and the MIC [9] was over 4 µg/mL. For the same molecule, the IC50 [10] was 0.7 µg/mL (≈ 1.74 µM), the MIC [10] was 2.0 µg/mL (≈ 4.98 µM) and the “Antifungal activity over the panel (summary in words)” value [17] was “had effects on some of these fungi”. The “Anti-fungal activity in vitro (Lu et al.)” value [18] was “weak or no anti-fungal activity”, the “Growth at 25 μg/ml compared to control at 24 hrs incubation” value [13] was 3 (25% reduction in growth of colonies compared to control.) and the “Growth at 25 μg/ml compared to control at 48 hours” value [13] was 4 (Level of growth in the absence of anti-fungal agent (control).). For the same molecule, the “Growth at 25 μg/ml compared to control at 48 hours” value ([14]; 25 μg/ml, 30° C., growth grade) was 4 (Level of growth in the absence of anti-fungal agent (control).), the “Growth at 25 μg/ml compared to control at 24 hrs incubation” value [15] was 4 (Level of growth in the absence of anti-fungal agent (control).) and the “Growth at 25 μg/ml compared to control at 48 hours” value [15] was 4 (Level of growth in the absence of anti-fungal agent (control).). The “Growth at 25 μg/ml compared to control at 24 hrs incubation” value [16] was 4 (Level of growth in the absence of anti-fungal agent (control).) and the “Growth at 25 μg/ml compared to control at 48 hours” value [16] was 4 (Level of growth in the absence of anti-fungal agent (control).).
